Measurements taken from patent US20240025906A1 (NEURON23, INC., priority 2022, published 2024).

What was measured:
[1] = system: JAK1/TYK2 pSTAT5 (Tyr694/699) in THP-1 cell line; experiment: IFNa-stimulated JAK1/TYK2 pSTAT5 (Tyr694/699) inhibition cellular assay, AlphaLISA; type: cell-based; conditions: Homo sapiens; THP-1 cells, IFNa-stimulated, AlphaLISA (Assay B); read-out: Cellular_THP1_IFNa-pSTATS_TYK2
In short: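 THP-1 cells (2e4/well in HBSS) were preincubated with compound (8 points, 6-fold steps from 10000 nM final) for 1 h at 37 °C, then stimulated with IFNa (added at 100 ng/mL) for 30 min. Lysate pSTAT5 was read by AlphaLISA at 615 nm. IC50 came from a 4-parameter fit with bottom 0 and Hill −1.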

TYK2 JH2 = target: T1, TYK2 JH2 (Homo sapiens, UniProt P29597); experiment: TYK2 JH2 binding assay (KINOMEscan KdELECT competitive binding); conditions: TYK2 JH2 domain, DiscoverX KINOMEscan KdELECT (Assay A); read-out: Biochemical TYK2_DiscoverX_JH2_BND_Kd
T1 construct: purchased DiscoverX (KINOMEscan KdELECT service); host or cells: E. coli BL21-derived (T7 phage display) or HEK-293
T1 sequence (P29597 589-875 limits assumed): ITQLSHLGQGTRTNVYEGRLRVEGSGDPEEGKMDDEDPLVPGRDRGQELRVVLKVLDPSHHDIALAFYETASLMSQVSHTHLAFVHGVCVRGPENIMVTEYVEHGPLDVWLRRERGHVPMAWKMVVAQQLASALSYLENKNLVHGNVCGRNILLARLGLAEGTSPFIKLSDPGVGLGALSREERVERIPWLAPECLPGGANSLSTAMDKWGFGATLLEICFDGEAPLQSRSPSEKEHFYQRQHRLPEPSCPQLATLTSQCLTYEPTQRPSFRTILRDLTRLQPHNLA
In short: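 Test compounds were titrated in 11 three-fold steps against JH2 fragment captured on ligand-loaded magnetic beads, with 1 h incubation at room temperature and DMSO at 0.9%. Eluted kinase was quantified by qPCR, and Kd was fitted from the dose series.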

Row | IC50 [1] | Kd (TYK2 JH2) | Structure (SMILES)
1 | ≤ 500 nM | ≤ 100 nM | CNc1ncc(-c2nc3cc(N4CC[C@@H](OC)C4)ccc3o2)c2cc(NC(=O)C3CC3)ncc12 [Example 281, (R)-N-(5-(5-(3-methoxypyrrolidin-1-yl)benzo[d]oxazol-2-y1)-8-(methylamino)-2,7-naphthyridin-3-yl)cyclopropanecarboxamide]
2 | ≤ 500 nM | ≤ 100 nM | CNc1ncc(-c2nc3cc(N4CC[C@H](OC)C4)ccc3o2)c2cc(NC(=O)C3CC3)ncc12 [Example 282, (S)-N-(5-(5-(3-methoxypyrrolidin-1-yl)benzo[d]oxazol-2-y1)-8-(methylamino)-2,7-naphthyridin-3-yl)cyclopropanecarboxamide]
3 | ≤ 500 nM | ≤ 100 nM | CNc1ncc(-c2nc3cc(N4CC(O)C4)ccc3o2)c2cc(NC(=O)C3CC3)ncc12 [Example 283, N-(5-(5-(3-hydroxyazetidin-1-yl)benzo[d]oxazol-2-y1)-8-(methylamino)-2,7-naphthyridin-3-yl)cyclopropanecarboxamide]
4 | ≤ 500 nM | ≤ 100 nM | CNc1ncc(-c2nc3cc(N4CC(F)C4)ccc3o2)c2cc(NC(=O)C3CC3)ncc12 [Example 284, N-(5-(5-(3-fluoroazetidin~1-yl)benzo[d]oxazol-2-y1)-8-(methylamino)-2,7-naphthyridin-3-yl)cyclopropanecarboxamide]
5 | ≤ 500 nM | ≤ 100 nM | CNc1ncc(-c2nc3cc(N4CC5COCC(C5)C4)ccc3o2)c2cc(NC(=O)C3CC3)ncc12 [Example 285, N-(5-(5-(3-oxa~7-azabicyclo[3.3.1]nonan-7-yl)benzo[d]oxazol-2-yl)-8-(methylamino)-2,7-naphthyridin-3-yl)cyclopropanecarboxamide]
6 | ≤ 500 nM | ≤ 100 nM | CNc1ncc(-c2nc3cc(N4CC(C)(OC)C4)ccc3o2)c2cc(NC(=O)C3CC3)ncc12 [Example 286, N-(5-(5-(3-methoxy-3-methylazetidin-1-yl)benzo[d]oxazol-2-yl)-8-(methylamino)-2,7-naphthyridin-3-yl)cyclopropanecarboxamide]
7 | ≤ 500 nM | ≤ 100 nM | CNc1ncc(-c2nc3cc(N4CC(N(C)C)C4)ccc3o2)c2cc(NC(=O)C3CC3)ncc12 [Example 287, N-(5-(5-(3-(dimethylamino)azetidin-1-yl)benzo[d]oxazol-2-y1)-8-(methylamino)-2,7-naphthyridin-3-yl)cyclopropanecarboxamide]
8 | ≤ 500 nM | ≤ 100 nM | CNc1ncc(-c2nc3cc(N4CC(C)(C)C4)ccc3o2)c2cc(NC(=O)C3CC3)ncc12 [Example 288, N-(5-(5-(3,3-dimethylazetidin-1-yl)benzo[d]oxazol-2-y1)-8-(methylamino)-2,7-naphthyridin-3-yl)cyclopropanecarboxamide]
9 | ≤ 500 nM | ≤ 100 nM | CNc1ncc(-c2nc3cc(N4CCO[C@@H](C)C4)ccc3o2)c2cc(NC(=O)C3CC3)ncc12 [Example 289, (S)—N-(8-(methylamino)-5-(5-(2-methylmorpholino)benzo[d]oxazol-2-yl)-2,7-naphthyridin-3-yl)cyclopropanecarboxamide]
10 | ≤ 500 nM | ≤ 100 nM | CNc1ncc(-c2nc3cc(N4CCC[C@@H](OC)C4)ccc3o2)c2cc(NC(=O)C3CC3)ncc12 [Example 290, (R)-N-(5-(5-(3-methoxypiperidin-1-yl)benzo[d]oxazol-2-yl)-8-(methylamino)-2,7-naphthyridin-3-yl)cyclopropanecarboxamide]
11 | ≤ 500 nM | ≤ 100 nM | CNc1ncc(-c2nc3cc(N4CCC[C@H](OC)C4)ccc3o2)c2cc(NC(=O)C3CC3)ncc12 [Example 291, (S)-N-(5-(5-(3-methoxypiperidin-1-yl)benzo[d]oxazol-2-y1)-8-(methylamino)-2,7-naphthyridin-3-yl)cyclopropanecarboxamide]
12 | ≤ 500 nM | ≤ 100 nM | CNc1ncc(-c2nc3cc(N4CCC[C@@H](C#N)C4)ccc3o2)c2cc(NC(=O)C3CC3)ncc12 [Example 292, (R)-N-(5-(5-(3-cyanopiperidin-1-yl)benzo[d]oxazol-2-y1)-8-(methylamino)-2,7-naphthyridin-3-yl)cyclopropanecarboxamide]
13 | ≤ 500 nM | ≤ 100 nM | CNc1ncc(-c2nc3cc(N4CCC[C@H](C#N)C4)ccc3o2)c2cc(NC(=O)C3CC3)ncc12 [Example 293]
14 | ≤ 500 nM | ≤ 100 nM | CNc1ncc(-c2nc3cc(NCCOC)ccc3o2)c2cc(NC(=O)C3CC3)ncc12 [Example 294, N-(5-(5-((2-methoxyethyl)amino)benzo[d]oxazol-2-yl)-8-(methylamino)-2,7-naphthyridin-3-yl)cyclopropanecarboxamide]
15 | ≤ 500 nM | ≤ 100 nM | CNc1ncc(-c2nc3cc(NC(C)=O)ccc3o2)c2cc(NC(=O)C3CC3)ncc12 [Example 295, N-(5-(5-acetamidobenzo[d]oxazol-2-yl)-8-(methylamino)-2,7-naphthyridin-3-yl)cyclopropanecarboxamide]
16 | ≤ 500 nM | ≤ 100 nM | CNc1ncc(-c2nc3cc(N4CC5(COC5)C4)ccc3o2)c2cc(NC(=O)C3CC3)ncc12 [Example 296, N-(5-(5-(2-oxa-6-azaspiro[3.3]heptan-6-yl)benzo[d]oxazol-2-y1)-8-(methylamino)-2,7-naphthyridin-3-yl)cyclopropanecarboxamide]
17 | ≤ 500 nM | ≤ 100 nM | CNc1ncc(-c2nc3cc(N(C)C(C)=O)ccc3o2)c2cc(NC(=O)C3CC3)ncc12 [Example 297, N-(5-(5-(N-methylacetamido)benzo[d]oxazol-2-yl)-8-(methylamino)-2,7-naphthyridin-3-y1)cyclopropanecarboxamide]
18 | ≤ 500 nM | ≤ 100 nM | CNc1ncc(-c2nc3cc(N4C[C@@H]5C[C@H]4CO5)ccc3o2)c2cc(NC(=O)C3CC3)ncc12 [Example 298, N-(5-(5-((15,4S)-2-oxa-5-azabicyclo[2.2.1]heptan-5-yl)benzo[d]oxazol-2-y1)-8-(methylamino)-2,7-naphthyridin-3-yl)cyclopropanecarboxamide]
19 | ≤ 500 nM | ≤ 100 nM | CNc1ncc(-c2nc3cc(N4C[C@H]5C[C@@H]4CO5)ccc3o2)c2cc(NC(=O)C3CC3)ncc12 [Example 299, N-(5-(5-((1R,4R)-2-oxa-5-azabicyclo[2.2.1]heptan-5-yl)benzo[d]oxazol-2-y1)-8-(methylamino)-2,7-naphthyridin-3-yl)cyclopropanecarboxamide]
20 | ≤ 500 nM | ≤ 100 nM | CNc1ncc(-c2nc3cc(N4CC5(CN(C)C5)C4)ccc3o2)c2cc(NC(=O)C3CC3)ncc12 [Example 300, N-(5-(5-(6-methyl-2,6-diazaspiro[3.3]heptan-2-yl)benzo[d]oxazol-2-yl)-8-(methylamino)-2,7-naphthyridin-3-yl)cyclopropanecarboxamide]
21 | ≤ 500 nM | ≤ 100 nM | CNc1ncc(-c2nc3cc(N4CCC(F)(F)CC4)ccc3o2)c2cc(NC(=O)C3CC3)ncc12 [Example 301, N-(5-(5-(4,4-difluoropiperidin-1-yl)benzo[d]oxazol-2-y1)-8-(methylamino)-2,7-naphthyridin-3-yl)cyclopropanecarboxamide]
22 | ≤ 500 nM | ≤ 100 nM | CNc1ncc(-c2nc3cc(N4CCO[C@H](C)C4)ccc3o2)c2cc(NC(=O)C3CC3)ncc12 [Example 302, (R)-N-(8-(methylamino)-5-(5-(2-methylmorpholino)benzo[d]oxazol-2-yl)-2,7-naphthyridin-3-yl)cyclopropanecarboxamide]
23 | ≤ 500 nM | ≤ 100 nM | CNc1ncc(-c2nc3cc(N4CCS(=O)(=O)CC4)ccc3o2)c2cc(NC(=O)C3CC3)ncc12 [Example 303, N-(5-(5-(1,1-dioxidothiomorpholino)benzo[d]oxazol-2-yl)-8-(methylamino)-2,7-naphthyridin-3-yl)cyclopropanecarboxamide]
24 | ≤ 500 nM | ≤ 100 nM | CNc1ncc(-c2nc3cc(N4CCN(C)CC4)ccc3o2)c2cc(NC(=O)C3CC3)ncc12 [Example 304, N-(8-(methylamino)-5-(5-(4-methylpiperazin-1-yI)benzo[d]oxazol-2-y1)-2,7-naphthyridin-3-yl)cyclopropanecarboxamide]
25 | ≤ 500 nM | ≤ 100 nM | CNc1ncc(-c2nc3cc(N4CC5CCC(C4)O5)ccc3o2)c2cc(NC(=O)C3CC3)ncc12 [Example 305]
26 | ≤ 500 nM | ≤ 100 nM | CNc1ncc(-c2nc3cc(N4C[C@H]5COC[C@H]5C4)ccc3o2)c2cc(NC(=O)C3CC3)ncc12 [Example 306, N-(8-(methylamino)-5-(5-((3aR,6a.S)-tetrahydro-1H-furo[3,4-c]pyrrol-5(3H)-yl)benzo[d]oxazol-2-y1)-2,7-naphthyridin-3-yl)cyclopropanecarboxamide]
27 | ≤ 500 nM | ≤ 100 nM | CNc1ncc(-c2nc3cc(N4CCN(c5ccncc5)CC4)ccc3o2)c2cc(NC(=O)C3CC3)ncc12 [Example 307, N-(8-(methylamino)-5-(5-(4-(pyridin-4-yl)piperazin-1-yl)benzo[d]oxazol-2-yl)-2,7-naphthyridin-3-yl)cyclopropanecarboxamide]
28 | ≤ 500 nM | ≤ 100 nM | CNc1ncc(-c2nc3cc(N4CCOC[C@@H]4C)ccc3o2)c2cc(NC(=O)C3CC3)ncc12 [Example 308, (S)-N-(8-(methylamino)-5-(5-(3-methylmorpholino)benzo[d]oxazol-2-yl)-2,7-naphthyridin-3-yl)cyclopropanecarboxamide]
